Among the data in PubChem BioAssay AID2305 (GlaxoSmithKline (GSK), 2010) are IC50 values, retold here.

What is called IC50 is the midpoint of a concentration-inhibition curve. Read a low IC50 as higher potency.

This assay deals with P. falciparum 3D7 growth, pLDH absorbance. In words: blood-stage malaria parasite growth potency – strain 3D7, dose response (AID 2305).
In turn, `CNC(=S)NCc1cnc2ccccn12` displayed an IC50 of 0.2 µM.
For `CN(C(=O)C1(c2ccc(Cl)cc2)CC1)C1CCN(CCCCCNC(=O)/C=C/c2ccc(Cl)c(Cl)c2)CC1`, the concentration for half-maximal inhibition (IC50) was 0.77 µM.
The figure for `Cc1cc(N(C)C2CCN(C)CC2)nc(Nc2ccc(Br)cc2)n1` is 0.48 µM; for `CCN(CCNC(=O)Nc1cc(C(F)(F)F)cc(C(F)(F)F)c1)c1cccc(C)c1` it is 0.8 µM.
As to `NCCNc1ccc([N+](=O)[O-])cc1C(=O)Nc1cccc(Cl)c1`, the half-maximal inhibitory concentration (IC50) turned out to be 1.26 µM.
With `OC1(C(F)(F)F)CC(c2ccccc2)=NN1c1nncc(-c2ccccc2)n1` (stereo not drawn), the 50% inhibitory concentration (IC50) stood at 0.73 µM.
Turning to `Oc1cccc(-c2nc(-c3ccccc3)c(-c3ccc(Oc4ccc(-c5[nH]c(-c6cccc(O)c6)nc5-c5ccccc5)cc4)cc3)[nH]2)c1`, the concentration for half-maximal inhibition (IC50) was 0.86 µM.
With `CCNc1cc(C)nc(Nc2ccc(NC(=O)c3ccc(OC)c(OC)c3)cc2)n1` the figure was 1.07 µM.
Compound `CCCC(C)Nc1nc(C)cc(NCCC(=O)Nc2ccccc2)n1` (stereo not drawn) registered a 50% inhibitory concentration (IC50) of 0.96 µM.
Compound `CCOc1ccc(C=CC(=O)Nc2ccc3nc(N4CCOCC4)cc(C)c3c2)cc1OC` came in with an IC50 of 0.9 µM.
`N#Cc1ccc(N2CCN(C(=O)c3cccc(-c4noc(C(F)(F)F)n4)c3)CC2)nc1` had a 50% inhibitory concentration (IC50) of 0.22 µM.
Compound `CCn1ncc(Cl)c1CN(C)S(=O)(=O)c1ccc(Br)cc1` displayed an IC50 of 1.02 µM.
`O=C(Nc1ccc(-c2cccc(-c3nc4ccccc4[nH]3)c2)cc1)N[C@@H]1C[C@H]1c1ccccc1` registered an IC50 of 0.63 µM.
Turning to `CC(=O)Nc1ccc(OCCCCCOc2ccc(NC(C)=O)cc2Cl)c(Cl)c1`, the half-maximal inhibitory concentration (IC50) came out at 0.83 µM.
Consider `CCOC(=O)C1=C(C)NC(Cn2ccnc2)=C(C(=O)OCC)C1c1ccc(C(C)(C)C)cc1` (stereo not drawn), for which the IC50 was determined as 0.81 µM.
With `CN(C)CCOc1cc(NC(=O)/C=C/c2cccc3ccccc23)ccc1I`, the IC50 came out at 1.26 µM.
The figure for `COc1ccc(CN2CCC(NCc3cccc(-n4ccnc4)c3)CC2)cc1` is 0.63 µM; for `O=C(Nc1cc(C(F)(F)F)ccc1-n1cncn1)C1(c2ccccc2)CC1` it is 0.06 µM.
The compound `NC(=O)CNC(=O)CCCN=C(N)N` had an IC50 of 0.17 µM.
Compound `COc1ccc(-c2onc(C(F)(F)F)c2-c2ccc(Br)cc2)c(O)c1` registered an IC50 of 0.24 µM.
In turn, `CC(C)Oc1ccc2c(c1)OC(c1ccccc1)(C(F)(F)F)NC2=O` (stereo not drawn) came in with a 50% inhibitory concentration (IC50) of 0.14 µM.
For `COc1cc(Nc2nccc(NCC(O)c3ccc(C(F)(F)F)cc3)n2)cc(OC)c1OC` (stereo not drawn), the IC50 is 0.92 µM.
With `CCCC(=O)Nc1ccc(Nc2nc(C)cc(N3CCCC3)n2)cc1`, the IC50 was found to be 1.49 µM.
The figure for `O=C(c1cccc(-c2noc(C(F)(F)F)n2)c1)N1CCN(C(=O)c2ccc3cc[nH]c3c2)CC1` is 0.11 µM.
The compound `Cn1c(Cc2ccccc2)nnc1Sc1ccc(C#N)c([N+](=O)[O-])c1` showed an IC50 of 0.91 µM.
For `CCCCCCN=C(N)c1ccc(OCCCCCOc2ccc(C(N)=NCCCCCC)cc2)cc1`, the IC50 turned out to be 0.31 µM.
`CCc1ccc(CN2CCC(C(=O)Nc3ccc(-c4nc5ccccc5[nH]4)cc3)CC2)o1` had a 50% inhibitory concentration (IC50) of 0.61 µM.
With `CN(C)CCN1CCN(CCCN2c3ccccc3Sc3ccc(C(F)(F)F)cc32)CC1` the figure was 0.76 µM.
In turn, `NC(=O)c1ccc(C(=O)Nc2cccc(-c3csc(-c4nc5ccccc5[nH]4)c3)c2)cc1` displayed an IC50 of 0.35 µM.
The figure for `CCN(CCCN1CCCCC1)c1cc(C)nc(Nc2ccc(C)cc2Br)n1` is 0.17 µM; for `O=C(Nc1cccc(-c2ccc(-c3nc4ccccc4[nH]3)cc2)c1)Nc1ccc(F)c(F)c1F` it is 0.24 µM.
The figure for `CC(=O)c1cccc2cc(C(=O)NC3CCC(CCN4CCc5ccc(C#N)cc5C4)CC3)[nH]c12` (stereo not drawn) is 0.79 µM.
The figure for `O=C(CCCCCNC(=O)c1ccc(O)c(-c2ccc(Cl)c(Cl)c2)c1)NC1CCCCCC1` is 0.95 µM; for `Cc1cnc(NCCc2ccc(F)cc2)nc1NCCC(=O)Nc1ccccc1` it is 0.95 µM; for `CCOC(=O)NCC(=O)Nc1cccc(-c2cccc(-c3nc4c(C)cccc4[nH]3)c2)c1` it is 0.74 µM.
In turn, `CCCNCc1ccc(-c2ccc(CN(CCOC)C(=O)CCCOCc3ccccc3)cc2)nc1` came in with an IC50 of 1.16 µM.
On to `CCN(CC)CCNc1ccnc2[nH]c3ccc(C)cc3c12`, for which the IC50 worked out at 0.67 µM.
For `OCCN1CCN(Cc2ccc(-c3cccc(-c4nc5ccc(F)cc5[nH]4)c3)cc2)CC1`, the half-inhibitory concentration (IC50) came out at 0.61 µM.
Turning to `CCCC(C)Nc1nc(C)cc(N[C@@H](CC(C)C)C(=O)NC2CCCC2)n1` (stereo partly drawn), the concentration for half-maximal inhibition (IC50) came to 1.08 µM.
The figure for `CN1CCN(CCCN(Cc2ccc(-c3cccc(CNC4CCCC4)c3)cc2)C(=O)Nc2ccccc2)CC1` is 1.12 µM; for `CC(C)CNCc1ccc(-c2cccc(CN(C(=O)CCC3CCCC3)C3CCN(Cc4ccccc4)CC3)c2)cc1` it is 0.8 µM; for `CCNc1cc(C)nc(Nc2ccc(NS(=O)(=O)c3cc(OC)ccc3OC)cc2)n1` it is 0.85 µM.
In the case of `N#Cc1c(N2CCN(c3ccc(F)cc3)CC2)nc(N)c2c(N)nc3c(c12)CC(=O)N3C1CC1`, the half-maximal inhibitory concentration (IC50) amounted to 0.84 µM.
`COc1cccc(CNC[C@@H](O)[C@H](Cc2ccccc2)NC(=O)c2cc(OC(C)C)cc(N3CCCCS3(=O)=O)c2)c1` registered an IC50 of 0.73 µM.
Compound `Nc1ccc(-c2nc3ccc(Oc4ccc5nc(-c6ccc(N)cc6)[nH]c5c4)cc3[nH]2)cc1` gave an IC50 of 0.72 µM.
In turn, `COc1cc(C(=O)NC2CCN(Cc3ccccc3)CC2)ccc1-c1cc2cc(Cl)c(Cl)cc2[nH]1` yielded an IC50 of 0.23 µM.
With `CC(C)c1ccc(Cn2cc(-c3ccncc3)c3cc(OCc4ccccc4)ccc32)cc1` the figure was 0.71 µM.
Take `COc1c(OC)c(OC)c2ccccc2c1CNCCCCCCNCc1c(OC)c(OC)c(OC)c2ccccc12`: the half-inhibitory concentration (IC50) came to 0.76 µM.
The figure for `CC(C)CCNC(=O)C1Cc2c([nH]c3cc(Cl)ccc23)C2(CCN(CCc3ccccc3)CC2)N1` (stereo not drawn) is 0.69 µM.
With `NC(=NCCc1ccc(Cl)c(Cl)c1)c1ccc2ccccc2c1`, the IC50 stood at 0.51 µM.
The figure for `CCNc1cc(C(=O)N[C@@H](Cc2ccccc2)[C@H](O)CNC2C3CC4CC(C3)CC2C4)cc(N2CCCCS2(=O)=O)c1` (stereo partly drawn) is 0.67 µM; for `COc1cc(Nc2nccc(Nc3ccc4c(C)[nH]nc4c3)n2)cc2ccccc12` it is 0.7 µM.
In turn, `COc1ccc2nccc(N3CCC(CCNCc4cc5c(cn4)OCCO5)CC3)c2c1` showed a half-maximal inhibitory concentration (IC50) of 0.87 µM.
With `O=C(Nc1cccc(Cl)c1Cl)N1CCc2cc3nccc(N4CCN5CCC[C@H]5C4)c3cc21` the figure was 1.04 µM; with `Cc1cc(NN=Cc2ccc(F)cc2)c2ccc(C(F)(F)F)cc2n1`, 0.82 µM; with `Oc1cccc(CNCCCN(Cc2ccccc2)c2ccccc2)c1`, 0.6 µM.
The compound `CC1CN(C(=O)c2sc3ccccc3c2Cl)CC(C)O1` (stereo not drawn) yielded an IC50 of 0.09 µM.
The compound `CCOc1ccc(NC(=O)c2cccc(CN3CCCN(Cc4cccc(O)c4)CC3)c2)cc1` returned an IC50 of 1.08 µM.
The figure for `Cn1c(NC(=O)C2CCCN(C(=O)c3ccc(O)c(-c4ccc(Cl)c(Cl)c4)c3)C2)nc2ccccc21` (stereo not drawn) is 0.75 µM.
The figure for `CCCCCCCCc1[nH]c(C)c(Br)c(=O)c1Br` is 0.18 µM.
`CCN(CCCN1CCCCC1)c1cc(C)nc(Nc2ccc(Cl)cc2)n1` came in with an IC50 of 0.38 µM.
Take `N#Cc1cnc2cc(-c3cnc(CNCCN4CCOCC4)s3)ccc2c1Nc1ccc(Oc2ccccc2)cc1`: the IC50 was 0.73 µM.
As for `CCC(C(=O)Nc1ccccc1)n1nc(-c2ccc(C)c(S(=O)(=O)N3CCCCC3)c2)ccc1=O` (stereo not drawn), the half-inhibitory concentration (IC50) turned out to be 1.09 µM.
With `Cc1nc2c(=O)sc3ccccc3c2n1Cc1ccccc1`, the concentration for half-maximal inhibition (IC50) was found to be 0.88 µM.
With `O=c1ccc2ccc(O)c(O)c2o1` the figure was 0.03 µM; with `O=C(Nc1nc(-c2cc(F)ccc2F)cs1)c1cncc(Br)c1`, 1.08 µM.
With `O=C(NCCc1ccccc1)N(Cc1ccc(-c2cccc(CN3CCNCC3)c2)cc1)C1CCN(Cc2ccccc2)CC1`, the 50% inhibitory concentration (IC50) worked out at 1.36 µM.
For the compound `O=S(=O)(NCCCN1CCOCC1)c1ccc2nccc(Nc3ccc(Oc4ccccc4)cc3)c2c1`, the IC50 stood at 0.85 µM.
Consider `O=C(Nc1cccc(C(F)(F)F)c1)c1cccc(S(=O)(=O)NC2CCCN(CC3CCCCC3)C2)c1` (stereo not drawn), for which the 50% inhibitory concentration (IC50) stood at 0.86 µM.
The compound `Cn1cc(-c2ccnc3[nH]c(-c4cccc(CNC5CCC(O)CC5)c4)cc23)cn1` (stereo not drawn) had an IC50 of 0.9 µM.
As to `O=C1CCCN1CCCNCc1ccc(-c2ccc(-c3nc4ccc(C(F)(F)F)cc4[nH]3)cc2)cc1`, the IC50 was 0.58 µM.
With `O=C(Nc1nccs1)c1cc(-c2cccnc2)nc2ccc(Br)cc12` the figure was 0.4 µM.
The figure for `O=C1OC2(CN1CC1CCN(Cc3ccc(-n4ccnc4)cc3)C1)c1ccccc1-c1ccccc12` (stereo not drawn) is 0.98 µM; for `Cc1[nH]c(C)c(-c2ccc(Oc3ccc(Cl)cc3)c(Cl)c2)c(=O)c1Br` it is 0.49 µM.
As for `CCCCOc1ccc(N2C(N)=NC(N)=NC2(C)C)cc1`, the concentration for half-maximal inhibition (IC50) worked out at 0.21 µM.
With `CC(=O)Nc1ccc(S(=O)(=O)Nc2ccc(Nc3nc(C)cc(N(C)C)n3)cc2)cc1`, the IC50 amounted to 1.16 µM.
With `CC(CN(C)C)C(=O)Nc1cccc(-c2cccc(-c3nc4ccc(F)cc4[nH]3)c2)c1` (stereo not drawn) the figure was 0.83 µM; with `NCc1cccc(-c2cccc(CN(C(=O)Nc3ccccc3)C3CCN(Cc4ccccc4)CC3)c2)c1`, 0.83 µM; with `Cc1cc(O)c(CN(C)Cc2ccc3c(c2)OCO3)cc1C(C)C`, 0.74 µM.
`Cc1cccc2[nH]c(-c3ccc(-c4ccc(CN5CCN(C6CCN(C)CC6)CC5)cc4)s3)nc12`: the concentration for half-maximal inhibition (IC50) is 0.14 µM.
With `COc1ccc(NC(=O)[C@H](CC(C)C)Nc2cc(C)nc(NCCOc3ccccc3)n2)cc1` the figure was 0.8 µM; with `CCOc1cc(C)ccc1C1CCN(CCCCNC(=O)c2ccc(-c3ccc(C(F)(F)F)cn3)cc2)CC1`, 0.79 µM.
Compound `O=C(N[C@@H](CC1CCCCC1)C(=O)NC1CCCc2ccccc21)c1ccc(O)c(-c2cccc(C(F)(F)F)c2)c1` (stereo partly drawn) yielded a concentration for half-maximal inhibition (IC50) of 0.6 µM.
`Cc1cccc2[nH]c(-c3cccc(-c4ccc(NC(=O)Nc5ccc(Cl)cc5)cc4)c3)nc12`: the IC50 was 0.2 µM.
As for `CC1CCN(c2nc(C(=O)Nc3cccc4c3CCCC4)c(C(C)C)s2)CC1`, the concentration for half-maximal inhibition (IC50) stood at 1.04 µM.
`Cc1cc(C(=O)CN2C(=O)NC3(CCCc4ccccc43)C2=O)c(C)n1Cc1ccc(F)cc1` (stereo not drawn) came in with an IC50 of 0.97 µM.
In turn, `COc1cc(F)c2ncc(Cl)c([C@H](O)CN3CCC(NCc4ccc5c(n4)NC(=O)CO5)CC3)c2c1` showed an IC50 of 0.16 µM.
The compound `CN(C)C(=O)CCCn1c(CNCCCNc2cc(=O)c3ccccc3[nH]2)cc2c(Cl)cc(Cl)cc21` yielded an IC50 of 1.19 µM.
